Experimental data: patent US11708348B2, “Protease inhibitors for treatment of coronavirus infections” (The Scripps Research Institute, priority 2021, dated 2023)

The molecules below were run on SARS-CoV-2 strain USA-WA1/2020 (assay: microbe, parasite or virus in culture). Settings: Severe acute respiratory syndrome coronavirus 2, HeLa-ACE2, 24 h, HeLa-ACE2 cells, SARS-CoV-2 infection, 24 h; bound printed in cell; read-out: EC50, uM (Hela).
Format: cell-based

With `Cn1cncc1C(O)C(=O)N1CC2(CC2)C[C@H]1C(=O)N[C@@H](C[C@@H]1CCNC1=O)C(=O)COC(F)(F)F` (stereo partly drawn) [Compound 383, (6S)-5-(2-hydroxy-2-(1-methyl-1H-imidazol-5-yl)acetyl)-N-((S)-3-oxo-1-((S)-2-oxopyrrolidin-3-yl)-4-(trifluoromethoxy)butan-2-yl)-5-azaspiro[2.4]heptane-6-carboxamide] the EC50 was > 1 µM.

Same assay, conditions: Severe acute respiratory syndrome coronavirus 2, HeLa-ACE2, 24 h, HeLa-ACE2 cells, SARS-CoV-2 infection, 24 h; cells given as a bound; read-out: EC50, uM (Hela)

`CC(C)C[C@H](NC(=O)Cc1cccc(Cl)c1)C(=O)N[C@@H](C[C@@H]1CCNC1=O)C(=O)COc1c(F)c(F)cc(F)c1F` [Compound 144, (S)-2-(2-(3-chlorophenyl)acetamido)-4-methyl-N—((S)-3-oxo-1-((S)-2-oxopyrrolidin-3-yl)-4-(2,3,5,6-tetrafluorophenoxy)butan-2-yl)pentanamide] was tested, and the EC50 was > 1 µM.

Same assay, conditions: Severe acute respiratory syndrome coronavirus 2, HeLa-ACE2, 24 h, HeLa-ACE2 cells, SARS-CoV-2 infection, 24 h; class symbols; read-out: EC50, uM (Hela)

First: CC(C)C[C@H](NC(=O)C(=O)Nc1ccccc1C#N)C(=O)N[C@@H](C[C@@H]1CCNC1=O)C(=O)COc1c(F)c(F)cc(F)c1F [Compound 75, N1-(2-cyanophenyl)-N2-((S)-4-methyl-1-oxo-1-(((S)-3-oxo-1-((S)-2-oxopyrrolidin-3-yl)-4-(2,3,5,6-tetra-fluorophenoxy)butan-2-yl)amino)pentan-2-yl)oxalamide]
Second: CC(C)C[C@H](NC(=O)C(=O)Nc1ccccc1F)C(=O)N[C@@H](C[C@@H]1CCNC1=O)C(=O)COc1c(F)cc(F)cc1F [Compound 131, N1-(2-fluorophenyl)-N2-((S)-4-methyl-1-oxo-1-(((S)-3-oxo-1-((S)-2-oxopyrrolidin-3-yl)-4-(2,4,6-trifluorophenoxy)butan-2-yl)amino)pentan-2-yl)oxalamide]
The EC50 of the first is lower: 0.05 to 0.2 µM for the first, 0.2 to 0.5 µM for the second. The first is the more potent here.

Compared with `O=C(N[C@@H](CC1CC1)C(=O)N[C@@H](C[C@@H]1CCNC1=O)C(=O)COC(F)(F)F)c1nnc(-c2ccc(F)cc2)o1` [Compound 184, N-((S)-3-cyclopropyl-1-oxo-1-(((S)-3-oxo-1-((S)-2-oxopyrrolidin-3-yl)-4-(trifluoromethoxy)butan-2-yl)amino)propan-2-yl)-5-(4-fluorophenyl)-1,3,4-oxadiazole-2-carboxamide], `Cc1ccccc1NC(=O)C(=O)N[C@@H](CC(C)C)C(=O)N[C@@H](C[C@@H]1CCNC1=O)C(=O)COC(F)(F)F` [Compound 206, N^1—((S)-4-methyl-1-oxo-1-(((S)-3-oxo-1-((S)-2-oxopyrrolidin-3-yl)-4-(trifluoromethoxy)butan-2-yl)amino)pentan-2-yl)-N^2-(o-tolyl)oxalamide] is lower in EC50: 0.05 to 0.2 µM for the first, < 0.05 µM for the second.

First: CC(C)(F)c1cc(C(=O)N2C[C@H]3[C@@H]([C@H]2C(=O)N[C@@H](C[C@@H]2CCNC2=O)C(=O)COc2c(F)c(F)cc(F)c2F)C3(C)C)no1 [Compound 284, (1R,2S,5S)-3-(5-(2-fluoropropan-2-yl)isoxazole-3-carbonyl)-6,6-dimethyl-N-((S)-3-oxo-1-((S)-2-oxopyrrolidin-3-yl)-4-(2,3,5,6-tetrafluorophenoxy)butan-2-yl)-3-azabicyclo-[3.1.0]hexane-2-carboxamide]
Second: CC(C)(C)[C@@H](O)C(=O)N1CC2(CC2)C[C@H]1C(=O)N[C@@H](C[C@@H]1CCNC1=O)C(=O)COC(F)(F)F [Compound 342, (S)-5-((R)-2-hydroxy-3,3-dimethylbutanoyl)-N-((S)-3-oxo-1-((S)-2-oxopyrrolidin-3-yl)-4-(trifluoromethoxy)butan-2-yl)-5-azaspiro[2.4]heptane-6-carboxamide]
The EC50 of the first is higher: 0.2 to 0.5 µM for the first, 0.05 to 0.2 µM for the second. The second is the more potent here.

`CC(C)(C)NC(=O)O[C@@H](C(=O)N1CC2(CC2)C[C@H]1C(=O)N[C@@H](C[C@@H]1CCNC1=O)C(=O)COC(F)(F)F)C(C)(C)C` [Compound 327, (R)-3,3-dimethyl-1-oxo-1-((S)-6-(((S)-3-oxo-1-((S)-2-oxopyrrolidin-3-yl)-4-(trifluoromethoxy)butan-2-yl)carbamoyl)-5-azaspiro[2.4]heptan-5-yl)butan-2-yl tert-butylcarbamate] gave an EC50 of 0.5 to 1 µM.

Same assay, conditions: Severe acute respiratory syndrome coronavirus 2, HeLa-ACE2, 24 h, HeLa-ACE2 cells, SARS-CoV-2 infection, 24 h; given as bound; read-out: EC50, uM (Hela)

`CC1(C)C[C@@H](C(=O)N[C@@H](C[C@@H]2CCNC2=O)C(=O)COC(F)(F)F)N(C(=O)C(=O)NC2(C)CC2)C1` [Compound 540, (S)-4,4-dimethyl-1-(2-((1-methylcyclo-propyl)amino)-2-oxoacetyl)-N-((S)-3-oxo-1-((S)-2-oxopyrrolidin-3-yl)-4-(trifluoromethoxy)butan-2-yl)pyrrolidine-2-carboxamide] and `O=C1NCC[C@H]1C[C@H](NC(=O)[C@@H]1[C@H]2CCC[C@H]2CN1C(=O)c1noc2c1CNCC2)C(=O)COC(F)(F)F` [Compound 556, (1S,3aR,6aS)-N-((S)-3-oxo-1-((S)-2-oxopyrrolidin-3-yl)-4-(trifluoromethoxy)butan-2-yl)-2-(4,5,6,7-tetrahydroisoxazolo[4,5-c]pyridine-3-carbonyl)octahydro-cyclopenta[c]pyrrole-1-carboxamide] cannot be ordered by EC50: > 1 µM for the first, > 1 µM for the second.

Same assay, conditions: Severe acute respiratory syndrome coronavirus 2, HeLa-ACE2, 24 h, HeLa-ACE2 cells, SARS-CoV-2 infection, 24 h; read-out: EC50, uM (Hela)

Compared with `O=C1NCC[C@H]1C[C@H](NC(=O)[C@@H]1CC2(CC2)CN1C(=O)c1cc(F)cc(F)c1)C(=O)COC(F)(F)F` [Compound 699, (S)-5-(3,5-difluorobenzoyl)-N-((S)-3-oxo-l-((S)-2-oxopyrrolidin-3-yl)-4-(trifluoromethoxy)butan-2-yl)-5-azaspiro[2.4]heptane-6-carboxamide], `O=C1NCC[C@H]1C[C@H](NC(=O)[C@@H]1CC2(CC2)CN1C(=O)c1cccc(C(F)(F)F)c1)C(=O)COC(F)(F)F` [Compound 457, (S)-N-((S)-3-oxo-1-((S)-2-oxopyrrolidin-3-yl)-4-(trifluoromethoxy)butan-2-yl)-5-(3-(trifluoromethyl)-benzoyl)-5-azaspiro[2.4]heptane-6-carboxamide] is lower in EC50: 0.05 to 0.2 µM for the first, < 0.05 µM for the second. The second is the more potent here.

`CC(C)(F)C[C@@H](O)C(=O)N1CC2(CC2)C[C@H]1C(=O)N[C@@H](C[C@@H]1CCNC1=O)C(=O)COC(F)(F)F` [Compound 754, (S)-5-((R)-4-fluoro-2-hydroxy-4-methylpentanoyl)-N-((S)-3-oxo-1-((S)-2-oxopyrrolidin-3-yl)-4-(trifluoromethoxy)butan-2-yl)-5-azaspiro[2.4]heptane-6-carboxamide] and `CC(C)C[C@@H](O)C(=O)N1CCC2(CC2)C[C@H]1C(=O)N[C@@H](C[C@@H]1CCNC1=O)C(=O)COC(F)(F)F` [Compound 640, (S)-6-((R)-2-hydroxy-4-methylpentanoyl)-N-((S)-3-oxo-1-((S)-2-oxopyrrolidin-3-yl)-4-(trifluoromethoxy)butan-2-yl)-6-azaspiro[2.5]octane-5-carboxamide] fall in the same range of EC50: 0.05 to 0.2 µM for the first, 0.05 to 0.2 µM for the second.

First: CCC[C@@H](O)C(=O)N1C[C@@H]2CCC[C@@H]2[C@H]1C(=O)N[C@@H](C[C@@H]1CCNC1=O)C(=O)COC(F)(F)F [Compound 425, (1S,3aR,6aS)-2-((R)-2-hydroxypentanoyl)-N-((S)-3-oxo-1-((S)-2-oxopyrrolidin-3-yl)-4-(trifluoromethoxy)butan-2-yl)octahydrocyclo-penta[c]pyrrole-1-carboxamide]
Second: O=C1NCC[C@H]1C[C@H](NC(=O)[C@@H]1[C@H]2CCC[C@H]2CN1C(=O)[C@@H](O)c1ccccc1)C(=O)COC(F)(F)F [Compound 417, (1S,3aR,6aS)-2-((S)-2-hydroxy-2-phenylacetyl)-N-((S)-3-oxo-1-((S)-2-oxopyrrolidin-3-yl)-4-(trifluoromethoxy)butan-2-yl)octahydrocyclo-penta[c]pyrrole-1-carboxamide]
The EC50 of the first is higher: 0.05 to 0.2 µM for the first, < 0.05 µM for the second. The second is the more potent here.

First: CSCC[C@H](NC(=O)[C@H](CC(C)C)NC(=O)C(=O)Nc1ccccc1F)C(=O)COc1c(F)c(F)cc(F)c1F [Compound 654, N1-(2-fluorophenyl)-N2-((S)-4-methyl-1-(((S)-5-(methylthio)-2-oxo-1-(2,3,5,6-tetrafluorophenoxy)pentan-3-yl)amino)-1-oxopentan-2-yl)oxalamide]
Second: O=C(N[C@@H](CC1CC1)C(=O)N[C@@H](C[C@@H]1CCNC1=O)C(=O)COC(F)(F)F)c1nnc(Nc2ccccc2)o1 [Compound 461, N-((S)-3-cyclopropyl-1-oxo-1-(((S)-3-oxo-1-((S)-2-oxopyrrolidin-3-yl)-4-(trifluoromethoxy)butan-2-yl)amino)propan-2-yl)-5-(phenylamino)-l,3,4-oxadiazole-2-carboxamide]
The EC50 of the first is higher: 0.5 to 1 µM for the first, 0.2 to 0.5 µM for the second.

`CC1(NC(=O)C(=O)N2C[C@H]3[C@@H]([C@H]2C(=O)N[C@@H](C[C@@H]2CCNC2=O)C(=O)COC(F)(F)F)C3(C)C)CC1` [Compound 469, (1R,2S,5S)-6,6-dimethyl-3-(2-((l-methylcyclopropyl)-amino)-2-oxoacetyl)-N-((S)-3-oxo-1-((S)-2-oxopyrrolidin-3-yl)-4-(trifluoromethoxy)butan-2-yl)-3-azabicyclo[3.1.0]-hexane-2-carboxamide] and `O=C1NCC[C@H]1C[C@H](NC(=O)[C@@H]1CC2(CC2)CN1C(=O)CNCC(F)(F)F)C(=O)COC(F)(F)F` [Compound 672, (S)-N-((S)-3-oxo-1-((S)-2-oxopyrrolidin-3-yl)-4-(trifluoromethoxy)butan-2-yl)-5-((2,2,2-trifluoroethyl)glycyl)-5-azaspiro[2.4]heptane-6-carboxamide] fall in the same range of EC50: 0.05 to 0.2 µM for the first, 0.05 to 0.2 µM for the second.

First: CN(C(=O)C(=O)NC(C)(C)C)[C@H](C(=O)N[C@@H](C[C@@H]1CCNC1=O)C(=O)COC(F)(F)F)C1CCCC1 [Compound 529, N1-(tert-butyl)-N2-((S)-1-cyclopentyl-2-oxo-2-(((S)-3-oxo-1-((S)-2-oxopyrrolidin-3-yl)-4-(trifluoromethoxy)butan-2-yl)amino)ethyl)-N2-methyloxalamide]
Second: O=C1NCC[C@H]1C[C@H](NC(=O)[C@@H]1CC2(CC2)CN1C(=O)C1CCOCC1)C(=O)COC(F)(F)F [Compound 682, (S)-N-((S)-3-oxo-1-((S)-2-oxopyrrolidin-3-yl)-4-(trifluoromethoxy)butan-2-yl)-5-(tetrahydro-2H-pyran-4-carbonyl)-5-azaspiro[2.4]heptane-6-carboxamide]
The EC50 of the first is lower: 0.05 to 0.2 µM for the first, 0.2 to 0.5 µM for the second. The first is the more potent here.
